Assay results as given in patent US9261497B2, “Method of treating cancer with modulators of SCFSkp2” (New York University, priority 2012, dated 2016).

What was measured:
Ubc3 = target: T1, Ubc3 (Homo sapiens, UniProt P49427); test: E2 ubiquitin charging (Ubc3~Ub conjugates); assay type: biochemical; details: 50 μM inhibitor
T1 construct: purchased Boston Biochem
T1 sequence (P49427 1-236): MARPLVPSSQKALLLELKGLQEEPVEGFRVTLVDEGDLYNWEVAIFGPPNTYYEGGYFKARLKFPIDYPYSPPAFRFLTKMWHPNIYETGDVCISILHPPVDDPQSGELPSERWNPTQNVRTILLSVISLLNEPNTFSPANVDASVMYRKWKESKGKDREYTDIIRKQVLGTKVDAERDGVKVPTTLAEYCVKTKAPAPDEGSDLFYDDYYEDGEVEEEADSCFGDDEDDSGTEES
Method: In vitro reconstituted assays were performed as previously described (Dorrello et al., “S6K1- and betaTRCP-mediated Degradation of PDCD4 Promotes Protein Translation and Cell Growth,” Science 314:467-471 (2006), which is hereby incorporated by reference in their entirety) with the exceptions of the use of (1) unlabeled proteins (wild-type and mutant Skp2 and Cks1, p27, Flag-βTrCP, and HA-PDCD4) generated by in vitro transcription-translation (TNT T7 Coupled Reticulocyte Lysate System, Promega); (2) chain elongation with non-methylated ubiquitin; and (3) immunoblotting to detect poly-ubiquitylation. The following reagents were obtained from Boston Biochem: UBE1, His-UbcH3, His-UbcH5c, Ubiquitin, and Ubiquitin Aldehyde. Additional reagents include CDK2/CyclinE1 (Sigma-Aldrich), S6K (Invitrogen), Okadaic acid (Sigma), and DMSO (Sigma-Aldrich). […] Reactions were stopped in nondenaturing 2× Sample Buffer, with the addition of 10% Beta-mercaptoethanol as indicated, and analyzed by Western blotting.

MDM2 = target: T2, MDM2 (Homo sapiens, UniProt Q00987); test: MDM2 p53 in vitro ubiquitylation counter-screen; assay type: biochemical; details: 50 μM inhibitor
T2 construct: purchased Boston Biochem
T2 sequence (Q00987 whole entry, species assumed): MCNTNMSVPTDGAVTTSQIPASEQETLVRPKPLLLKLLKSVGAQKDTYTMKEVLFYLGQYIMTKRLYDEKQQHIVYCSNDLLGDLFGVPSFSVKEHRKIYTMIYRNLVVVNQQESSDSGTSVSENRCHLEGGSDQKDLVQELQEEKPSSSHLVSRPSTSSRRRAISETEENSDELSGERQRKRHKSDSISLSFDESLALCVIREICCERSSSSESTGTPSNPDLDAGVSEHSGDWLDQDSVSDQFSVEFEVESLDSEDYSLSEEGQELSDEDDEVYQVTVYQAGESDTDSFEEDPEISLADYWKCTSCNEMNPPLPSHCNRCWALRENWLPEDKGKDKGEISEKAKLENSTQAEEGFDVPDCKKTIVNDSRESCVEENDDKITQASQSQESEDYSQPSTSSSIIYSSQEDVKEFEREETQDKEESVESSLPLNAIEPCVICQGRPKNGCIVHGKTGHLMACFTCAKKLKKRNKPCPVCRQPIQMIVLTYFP
Method: p53 ubiquitylation was carried out with the p53 Ubiquitylation Kit (Boston Biochem) following manufacturers protocol. Immunoblotting was performed using mouse monoclonal p53 (Santa Cruz) and rabbit polyclonal MDM2 (Santa Cruz).

501 Mel cells = test: Cell cycle FACS analysis, 501 Mel; assay type: cell-based, human; details: shEmpty 501 Mel; 10 μM for 16 hours
Method: Whole cell extracts were prepared and immunoblotted as previously described Dorrello et al., “S6K1- and betaTRCP-mediated Degradation of PDCD4 Promotes Protein Translation and Cell Growth,” Science 314:467-471 (2006), which is hereby incorporated by reference in its entirety. For knockdown of Skp2 or p27, shRNAs were induced with 2 ng/ml doxycycline for 48 hours, with the last 16 hours co-treated with 0.1% Vehicle or 10 μM inhibitors as indicated. For cycloheximide chase, cells were pretreated 16 h with 0.1% Vehicle or 10 μM inhibitors, followed by 20 ng/ml cycloheximide (Sigma) and whole cell extracts collected for each time point. […] Scanning densitometry was performed on immunoblots using Image J software. For cell cycle analysis, cells were treated with 0.1% Vehicle or 10 μM inhibitors for 16 h. 1×10^6 cells were fixed in 70% ethanol for 2 h, treated with 200 μg/ml RNase A (Invitrogen) for 30 minutes, and stained with 20 μg/ml Propidium Iodine (Sigma). All samples were assayed in triplicates. Signal was detected using the Becton Dickson LSRII flow cytometer and cell cycle profiles were analyzed with FloJo.

SCF-βTrCP = test: β-TrCP PDCD4 in vitro ubiquitylation counter-screen; assay type: biochemical; details: 50 μM inhibitor
Method: In vitro reconstituted assays were performed as previously described (Dorrello et al., “S6K1- and betaTRCP-mediated Degradation of PDCD4 Promotes Protein Translation and Cell Growth,” Science 314:467-471 (2006), which is hereby incorporated by reference in their entirety) with the exceptions of the use of (1) unlabeled proteins (wild-type and mutant Skp2 and Cks1, p27, Flag-βTrCP, and HA-PDCD4) generated by in vitro transcription-translation (TNT T7 Coupled Reticulocyte Lysate System, Promega); (2) chain elongation with non-methylated ubiquitin; and (3) immunoblotting to detect poly-ubiquitylation. The following reagents were obtained from Boston Biochem: UBE1, His-UbcH3, His-UbcH5c, Ubiquitin, and Ubiquitin Aldehyde. Additional reagents include CDK2/CyclinE1 (Sigma-Aldrich), S6K (Invitrogen), Okadaic acid (Sigma), and DMSO (Sigma-Aldrich). For ubiquitin charging, UBE1 (100 nM) and His-UbcH3 (10 ng/μl) were incubated with ubiquitin (2.5 μg/μl), ATP (2 mM), and 10 μM […] of inhibitors or Vehicle control for 60 min at 30° C. Reactions were stopped in nondenaturing 2× Sample Buffer, with the addition of 10% Beta-mercaptoethanol as indicated, and analyzed by Western blotting.

ECC-1 cells = test: ECC-1 cytotoxicity (trypan blue exclusion); assay type: cell-based; details: 10 μM, 48 h
Caspase 3 in ECC-1 cells = test: ECC-1 apoptosis (Caspase 3 cleavage immunoblot); assay type: cell-based, human; details: 10 μM, 18 h
Method: Whole cell lysates were prepared in ice cold RIPA buffer (50 mM Tris-HCL, 150 mM NaCl, 0.25% sodium deoxycholate, 1% NP-40 and 1 mM EDTA) containing 1 mM Na3VO4, pH 7.4) and 1× Protease Inhibitor Cocktail (Sigma Chem, St Louis, Mo.). Following freezing and thawing once, and soluble proteins obtained by centrifugation at 14,000×g for 10 min at 4° C. Protein concentrations were quantified (BCA kit, Thermo Scientific, Rockland, Ill.) and 20 μg protein in Laemmli buffer were subjected to SDS-PAGE (12.5% polyacrylamide) and immunoblotted using anti-p27 and anti-Skp2 antibodies to probe protein levels, as described (Lecanda et al., “TGFbeta Prevents Proteasomal Degradation of the Cyclin-dependent Kinase Inhibitor p27kip1 for Cell Cycle Arrest,” Cell Cycle 8:742-756 (2009), which is hereby incorporated by reference in its entirety). For subcellular fractionation, following treatments, cells were separated into nuclear and cytoplasmic fractions using the NE-PER kit (Thermo Scientific), and 10 μg cytoplasmic and nuclear protein fractions were loaded onto SDS-PAGE for immunoblotting. Following protein transfer onto nitrocellulose membranes, the membrane was blocked with 5% non-fat dry milk in TBS containing 0.1% Tween 20 (TBST) for 1 h, incubated overnight with mouse anti-human p27 (1:1000, Clone 57, BD Transduction Labs) or mouse anti-human p45/Skp2 (1:1000, Clone 8D9, Invitrogen, Grand Island, N.Y.) or rabbit anti-human Caspase-3 antibody (1:500, Clone 8G10, Cell Signaling Technology (Danvers, Mass.)). Purity of the subcellular fractions was confirmed using mouse anti-human α-tubulin (1:10,000, Clone B-5-1-2, Sigma) for cytoplasmic or rabbit anti-human Sp1 (1:1000, Clone H-225, Santa Cruz Biotechnology, Santa Cruz, Calif.) for nuclear fractions. The membranes were incubated with peroxidase-conjugated goat anti-rabbit or goat anti-mouse secondary antibodies in TBST (1:2000; Thermo Scientific).

| SMILES | E2 charging (Ubc3~Ub) (Ubc3) | MDM2 activity (p53 poly-ubiquitylation) (MDM2) | S phase cells (501 Mel cells) | β-TrCP activity (PDCD4 poly-ubiquitylation) (SCF-βTrCP) | Cytotoxicity (ECC-1 cells) | Caspase 3 cleavage (apoptosis) (Caspase 3 in ECC-1 cells) | Cell death (ECC-1 cells) [%] |
| --- | --- | --- | --- | --- | --- | --- | --- |
| O=C(O)COc1ccc(Br)cc1C=C1SC(=S)N(Cc2cccnc2)C1=O [Compound C1] | unaffected | not blocked | a decrease in S phase cells | not blocked |  |  |  |
| COC(=O)C1=C(C)N(c2ccc(Br)cc2)C(=O)C1=Cc1ccccc1O [Compound C2] | unaffected | not blocked | a decrease in S phase cells | not blocked | not cytotoxic | activate caspase 3 to a similar extent as the control |  |
| O=C(O)COc1ccc(C=C2SC(=O)N(CC(=O)c3ccc(Cl)cc3)C2=O)cc1 [Compound C16] | unaffected | not blocked | a decrease in S phase cells | not blocked |  | shows cleavage of caspase 3 | 77 |
| O=C(NN=Cc1cc(Br)cc(Br)c1O)C(=Cc1ccccc1O)NC(=O)c1ccccc1 [Compound C20] | unaffected | not blocked | a decrease in S phase cells | not blocked | not cytotoxic | activate caspase 3 to a similar extent as the control |  |
